The numbers were not newly measured in patent publication US12678449B2, “Compositions including cannabis and avocado/soybean unsaponifiables and methods of use” (Nutramax Laboratories, Inc., priority 2019, dated 2026), which cites them from elsewhere.

Like-named read-outs stand apart in the source and are kept apart here.

For data set [1] the following is noted: beagle dogs, oral, single dose.
The conditions of data set [2]: human.

Take `C=C(C)[C@@H]1CCC(C)=C[C@H]1c1c(O)cc(CCCCC)cc1O` [CBD, 2-[(1R,6R)-3-methyl-6-prop-1-en-2-ylcyclohex-2-en-1-yl]-5-pentylbenzene-1,3-diol]: the results for the “median maximal concentration of CBD in serum” value in data set [1] (2 mg/kg CBD in olive oil) and in data set [1] (8 mg/kg CBD in olive oil) were 102.3 ng/mL and 590.8 ng/mL, respectively. Further, in data set [2] (10 mg dose of CBD (Guy et al.)), the CMAX is 2.47 ng/mL. For the same molecule, in data set [2] (1 h after oral intake of 5.4 mg dose (Nadulski et al.)), the “mean plasma concentration of CBD” value is reported as 0.95 ng/mL. In data set [2] (oral administration of 40 mg of CBD (Agurell et al.)), the “mean plasma level of CBD” value is recorded as 5.5 ng/mL.
